One assay has as its target T1, BRD4 BD1 WT (Homo sapiens, UniProt O60885).
T1 construct: Constructs used for mutagenesis, including wild-type BD1 (BD1 WT), BD1 with an E151A mutation (BD1 E151A), and wild-type BD2 (BD2 WT); GST (cleaved yes); made in house
Put plainly: Thermal shift assay (TSA/DSF), BD1 WT. It is filed as binding. The settings on record: eight increasing concentrations. The method, then:
(§1) The melting temperatures shifts (ΔTm) were measured and the ΔTm curves as a function of compound-to-protein ratios were generated (Fig 2B–2C). […] As an additional control, the Tm of WT BD1 and E151A mutant in the absence of compound was also measured by TSA.
(§2) Plasmid construction and subsequent protein expression and purification of BRD4 proteins were performed using OverExpress C43(DE3) bacterial competent cells (Lucigen) as described in our previous studies. In brief, 12 L of bacterial cultures grown to OD600 between 0.6-0.8 were induced at 37°C for 4 h by 1 mM isopropyl […] (IPTG). Bacterial sonication supernatant in the lysis buffer (500 mM NaCl, 20 mM Tris-HCl pH 7.9 at 4°C, 20% glycerol, 1 mM EDTA, 0.2 mM DTT, and protease inhibitors) was incubated with glutathione (GSH) agarose beads (GOLDBIO, G-250–100) overnight with rotation at 4°C. The protein-bound GSH beads were washed three times with the lysis buffer and digested with human rhinovirus 3C protease (HRV-P3C; Thermal Fisher 88946) at 4°C for 4 h, according to the manufacture’s procedure, to remove GST tag from BD1/2 proteins. Untagged BRD4-BD1 and -BD2 were separated from HRV-P3C via passing through a HiTrap Q HP anion exchange chromatography column (GE Healthcare, GE17-1154-01) and eluted by a salt gradient from 100 mM to 1 M NaCl. […]

Another assay has as its target T2, BRD4 BD1 E151A (Homo sapiens, UniProt O60885, E151A).
T2 construct: Constructs used for mutagenesis, including wild-type BD1 (BD1 WT), BD1 with an E151A mutation (BD1 E151A), and wild-type BD2 (BD2 WT); GST (cleaved yes); made in house
Put plainly: Thermal shift assay (TSA/DSF), BD1 E151A mutant. It counts as binding. The settings on record: eight increasing concentrations. As for the experimental part:
as §1, §2

The test system of a further assay is HIV-1 JR-CSF. Put plainly: HIV suppression in HIV-infected humanized mice (plasma viral load). It is filed as in vivo, CD34+ Hu-NSG mice (Hu-mice). The method, then:
Next, at week 0, all12 Hu-mice were intravenously inoculated with a single dose of HIV-1 JR-CSF (equivalent to 10 ng HIV p24 antigen per animal) (Fig 6A). Systemic HIV infection was confirmed in 11 out of the 12 mice at weeks 2 and 3 after HIV inoculation, based on the detection of plasma viral RNAs by a single-step RT-qPCR (Fig 6B-6C). Systemic HIV infection in the Hu-mice was also confirmed by ELISA quantification of plasma HIV p24 antigens at weeks 2 and 3 after HIV inoculation (Fig F in S1 Text). The 11 Hu-mice with successful HIV infection were then randomized into four treatment groups at week 3: empty vehicle control (EV) (n = 2), ART (n = 3), ZL0580 (n = 3), and ART + ZL0580 (n = 3). Drug formulations included: ART (Raltegravir 1.2 mg/mouse, Emtricitabine 3.2 mg/mouse, Tenofovir 3.2 mg/mouse), ZL0580 (3.8 mg/mouse), and a combination of both ART + ZL0580 (same concentration of individual compounds). All drugs were formulated in the buffer consisting of 10% DMSO, 10% Solutol HS 15, and 80% HP-β-CD (20%, w/v). The empty vehicle (EV) group received only the formulation buffer. Treatment regimens were initiated at week 3 and administered daily by intraperitoneal injection (Fig 6A). Plasma viral loads were closely monitored during the treatments.
All humanized mice used in this study weighed approximately 20 grams, and drug dosages were calculated accordingly. The following compounds were administered to mice daily: Raltegravir (Ral) at 60mg/kg (1.2 mg/mouse), Emtricitabine (Emt) at 160mg/kg (3.2 mg/mouse), Tenofovir (Ten) at 160mg/kg (3.2 mg/mouse), and ZL0580 at […] (3.8 mg/mouse). ART drugs were purchased from MedChemExpress. ZL0580 was synthesized in-house as previously reported. All compounds were dissolved in a formulation vehicle composed of 10% DMSO, 10% Solutol HS 15, and 80% hydroxypropyl-β-cyclodextrin (HP-β-CD, 20% w/v). Compounds were administered via intraperitoneal injection daily.
Mice were 16-week-old at the initiation of the experiments. All mice received human CD34 + stem cells of a single donor and human immune cell reconstitution was confirmed for all mice. A total of 12 Hu-mice were initially included in the study with each tagged and assigned with a unique ID. At week 0, all Hu-mice were intravenously (IV) infected with HIV-1 JR-CSF at a single dose of 10ng HIV p24 equivalent virus per animal. Blood/plasma viral loads were monitored and quantified weekly by a single-step RT-qPCR until systemic HIV infection was established. […] At week 3, the remaining 11 Hu-mice were randomized into four groups for subsequent treatments: Empty Vehicle (EV) (n = 2), ART (n = 3), ZL0580 (n = 3), and ART + ZL0580 (n = 3). The control mice received a mixture of DMSO, Solutol HS 15, and hydroxypropyl-β-cyclodextrin (HP-β-CD, 20% w/v), which was considered the empty vehicle control (EV). ART and ZL0580 compounds were administered to mice via intraperitoneal injection daily for four weeks (from week 3 to week 7). […] Plasma samples were collected from mice either weekly or biweekly for quantification of viral loads (RNA copies). Blood cells were also collected at weeks 7 and 13 for quantification of cell-associated HIV DNA in blood. Mouse weights were monitored after treatment.
Viral RNA was isolated from plasma samples using the QIAamp Viral RNA Mini Kit (Qiagen) according to the manufacturer’s instructions. Quantification of viral RNA was performed using the PrimeTime One-Step RT-qPCR Master Mix (IDT) on a CFX Connect Real-Time PCR System (Bio-Rad). […]

The next assay has as its system BRD4 BD1. The arrangement: method as in PMID 31329163. The settings on record: in vitro binding affinity; cited from earlier work.
Assay [1] relates to Tat recruitment to the HIV promoter in J-Lat cells (clone 10.6). Also noted: method as in PMID 31329163. The settings on record: cited from earlier work.

Each structure is given as a SMILES string.

As usually defined, the IC50 is the concentration that inhibits the measured activity by half. `O=C(Nc1ccc(C(F)(F)F)cc1)Nc1ccc(S(=O)(=O)N2CCC[C@H]2C(=O)Nc2ccccc2)cc1` [ZL0580]: at BRD4 BD1 WT, the “Effect on stability of WT BD1 (TSA)” value is given as “dose-dependently increased the stability”. Further, the “Effect on stability of BD1 E151A mutant (TSA)” value at BRD4 BD1 E151A is “almost no effect”. The “Delay of viral rebound following TI compared to ART alone” value with HIV-1 JR-CSF (ZL0580 monotherapy) is on record as ~ 2 weeks. For the same compound, the “Plasma viral loads at week 5” value in the assay on HIV-1 JR-CSF (after two weeks of daily i.p. treatment, ZL0580 3.8 mg/mouse, ART Raltegravir 1.2, Emtricitabine 3.2, Tenofovir 3.2 mg/mouse) is listed as “nearly undetectable levels”. In addition, the “Plasma viral copies at week 7 (mean ± SEM)” value with HIV-1 JR-CSF (end of 4 weeks daily i.p. treatment, n = 3 per group) is 105 ± 28 HIV RNA copies/ml. For the same compound, the “Area under the curve (AUC) of viral loads after TI, weeks 7 to 15, compared to EV control” value in the assay with HIV-1 JR-CSF (one-way ANOVA) is on record as “significantly suppressed viral rebounds”. The “Plasma mean viral copies at week 9” value in the assay with HIV-1 JR-CSF (two weeks post treatment interruption (TI)) is “undetectable”. Besides, the IC50 in the assay with BRD4 BD1 was 163 nM. Besides, the “Tat binding to the HIV promoter” value in assay [1] is “decreased”.

Values taken from publication PMC12880750, “Mechanistic insights and in vivo HIV suppression by the BRD4-targeting small molecule ZL0580” (PLOS Pathogens, 2026).
